We go through 20 molecules from PubChem BioAssay (NCI).

Test systems include HOP-18 NSCLC; M19-MEL melanoma; DMS 114 small cell lung; LXFL 529 NSCLC; DLD-1 colon; SNB-78 CNS; XF 498 CNS; RXF-631 renal; MDA-N.
Test in all cases: NCI tumour cell line growth inhibition, 48 h

The structures appear in SMILES notation.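 In this assay, cells in 96-well plates receive the compound at five concentrations for 48 hours. Endpoints are linearly interpolated between the surrounding concentrations. GI50 = concentration required for 50% inhibition of growth. Definition used: TGI = concentration required for complete inhibition of growth.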 Where a SMILES comes first, the peptide text is derived from it. [ ]: non-standard residue; d: D form. The star is where a group is joined. NMeF = CN[CH](Cc1ccccc1)C(=O)O; NMeV = CN[CH](C(=O)O)C(C)C; Boc = CC(C)(C)OC(=O)*; OBn = c1ccc(CO*)cc1

Take `OCCc1cnco1`: the TGI with HOP-18 NSCLC, in the assay on M19-MEL melanoma, with DMS 114 small cell lung, in the assay on LXFL 529 NSCLC, with DLD-1 colon and in the assay with SNB-78 CNS was more than 100 µM in each case.
As to `CCC[CH2][Sn]1([CH2]CCC)[O]C(=O)C[S]1`, the GI50 was 1.57 µM with HOP-18 NSCLC; 1.41 µM in the assay on XF 498 CNS; 1.9 µM in the assay with M19-MEL melanoma; 1.29 µM in the assay on DMS 114 small cell lung; 0.312 µM in the assay with LXFL 529 NSCLC; 1.29 µM in the assay with DLD-1 colon. Also, the figures for the GI50 in the assay on RXF-631 renal and in the assay on SNB-78 CNS were 0.85 µM and 1.17 µM, respectively. Besides, the TGI is 2.91 µM in the assay with HOP-18 NSCLC; 2.74 µM in the assay on XF 498 CNS; 7.75 µM in the assay on M19-MEL melanoma; 4.08 µM in the assay with DMS 114 small cell lung; 1.55 µM in the assay with LXFL 529 NSCLC; 2.78 µM in the assay with DLD-1 colon. Also, the TGI with RXF-631 renal was 5.05 µM; with SNB-78 CNS it was 4.14 µM.
On to `COC1=NN2C(OC)(c3ccccc3)c3c(-c4ccccc4)sc(-c4ccccc4)c3C2(c2ccccc2)S1` (stereo not given), for which the TGI in the assay on XF 498 CNS, in the assay on LXFL 529 NSCLC, in the assay on DLD-1 colon, with RXF-631 renal and with SNB-78 CNS was more than 100 µM throughout.
For `C(=C1\CCC/C(=C/c2ccccc2)C1=NNc1ccccc1)/c1ccccc1`, the TGI in the assay on HOP-18 NSCLC, with M19-MEL melanoma, in the assay on DMS 114 small cell lung, in the assay with LXFL 529 NSCLC, in the assay with DLD-1 colon and in the assay with RXF-631 renal was more than 100 µM throughout. Also, the TGI in the assay with SNB-78 CNS is more than 100 µM.
Regarding `CC(C)C(NC(=O)OC(C)(C)C)C(=O)N(C)C(Cc1ccccc1)C(=O)N(C)C(C(=O)N(C)C(C(=O)OCc1ccccc1)C(C)C)C(C)C` (stereo not given) (Boc-V[NMeF][NMeV][NMeV]-OBn; configuration not given here), the TGI in the assay with XF 498 CNS is 82.4 µM; in the assay on M19-MEL melanoma it was more than 100 µM; with DMS 114 small cell lung, more than 100 µM; in the assay on LXFL 529 NSCLC, more than 100 µM.
On to `Cc1cn(C2C=CC(=O)C(C)O2)c(=O)[nH]c1=O` (stereo not given), for which the TGI in the assay with HOP-18 NSCLC is 28.5 µM; with XF 498 CNS, 26.4 µM; with M19-MEL melanoma, 30.1 µM; with LXFL 529 NSCLC it was 28.1 µM; with DLD-1 colon, 29.7 µM; in the assay on RXF-631 renal it was 28.5 µM. In the assay on SNB-78 CNS, this molecule showed a TGI of 35.4 µM.
As to `CC(C)C(/C=C/c1ccccc1)=N\NC(=O)N/N=C(/C=C/c1ccccc1)C(C)C`, the TGI is 77.4 µM in the assay on XF 498 CNS; 76.9 µM with M19-MEL melanoma; 60.1 µM in the assay with DMS 114 small cell lung; 75.3 µM with LXFL 529 NSCLC; more than 100 µM in the assay with DLD-1 colon; more than 100 µM with SNB-78 CNS.
For `N/C(=N\OC(=O)NC(Cl)=C(Cl)Cl)c1cc(C(F)(F)F)cc(C(F)(F)F)c1`, the TGI in the assay with MDA-N was 59.5 µM.
As for `COc1cc(NCC(C#N)C#N)ccc1N=Nc1ccc([N+](=O)[O-])cc1`, the TGI with HOP-18 NSCLC, in the assay on M19-MEL melanoma, with DMS 114 small cell lung, in the assay with LXFL 529 NSCLC, with DLD-1 colon and in the assay with RXF-631 renal was more than 100 µM each time. In the assay on SNB-78 CNS, this molecule came in with a TGI of more than 100 µM.
Molecule `CSc1nc(Cl)c(Br)c(Nc2c[nH]c(=O)[nH]c2=O)n1` returned a TGI in the assay on MDA-N of 46.9 µM.
Molecule `COc1cc(C/C=C/c2ccccc2)c(OC)cc1O` came in with a TGI in the assay on MDA-N of 33.8 µM.
As for `COc1cc2ccc(CC#N)cc2cc1OC`, the TGI in the assay with XF 498 CNS, with M19-MEL melanoma, in the assay on DMS 114 small cell lung, with LXFL 529 NSCLC, with DLD-1 colon and in the assay on RXF-631 renal was more than 100 µM throughout. Besides, the TGI in the assay on SNB-78 CNS was more than 100 µM.
With `O=C1c2c(c3c4ccccc4n4c3c3c2c2ccccc2n3C/C=C\C4)C(=O)N1Cc1ccccc1`, the TGI in the assay on HOP-18 NSCLC is more than 100 µM; in the assay on XF 498 CNS, 85.9 µM; in the assay with M19-MEL melanoma, more than 100 µM; with LXFL 529 NSCLC it was more than 100 µM; with DLD-1 colon, more than 100 µM.
Take `COc1cc2c(c3oc(-c4ccc5c(c4)OCO5)c(O)c(=O)c13)CCC(C)(C)O2`: the TGI in the assay on HOP-18 NSCLC, in the assay with M19-MEL melanoma, in the assay with DMS 114 small cell lung, in the assay on LXFL 529 NSCLC, with DLD-1 colon and in the assay with RXF-631 renal was more than 100 µM in each case. Besides, the TGI in the assay on SNB-78 CNS is more than 100 µM.
As for `O=C1c2cnccc2Cc2cccc3c2N1c1ccccc1S3`, the TGI with XF 498 CNS was 32.6 µM; in the assay on M19-MEL melanoma, 86.7 µM; in the assay on DMS 114 small cell lung, 73.6 µM; in the assay with LXFL 529 NSCLC, more than 100 µM; in the assay on DLD-1 colon, more than 100 µM; with RXF-631 renal, more than 100 µM.
On to `CC(=O)Nc1ccc(-c2nnc(SCC(=O)Nc3ccccc3[N+](=O)[O-])o2)cc1`, for which the TGI with HOP-18 NSCLC, with M19-MEL melanoma, in the assay with DMS 114 small cell lung, in the assay with LXFL 529 NSCLC, with DLD-1 colon and with SNB-78 CNS was more than 100 µM in each case.
Turning to `Cn1cc2ccccc2c1-c1nc(F)nc(Oc2ccc3c(c2)CC[C@@H]2C3CC[C@]3(C)C(O)CCC23)n1` (stereo not given in full), the TGI with HOP-18 NSCLC stood at 35.7 µM; in the assay on M19-MEL melanoma it was 47.8 µM; in the assay with DMS 114 small cell lung it was 37.8 µM; in the assay on LXFL 529 NSCLC it was 31.6 µM; with DLD-1 colon, 30.9 µM; in the assay on SNB-78 CNS it was 36.1 µM.
With `COc1ccc2oc(-c3ccncc3)cc(=O)c2c1`, the TGI with XF 498 CNS, with DMS 114 small cell lung, in the assay with LXFL 529 NSCLC, in the assay with DLD-1 colon and with RXF-631 renal was more than 100 µM in each case.
In the case of `O=C1C2Cc3ccccc3CN2C(=O)N1CN1CCN(CN2C(=O)C3Cc4ccccc4CN3C2=O)CC1` (stereo not given), the TGI in the assay on HOP-18 NSCLC, in the assay with M19-MEL melanoma, in the assay with DMS 114 small cell lung, with DLD-1 colon, in the assay with RXF-631 renal and in the assay on SNB-78 CNS was more than 100 µM each time.
In turn, `O=C1C[C@@H](c2ccccc2)NCCCCN(O)CCCN1` yielded a TGI with MDA-N of more than 100 µM.
